Assay results as given in patent US20250275976A1, “Methods of Treating Neuroinflammatory Conditions” (Athira Pharma, Inc., priority 2022, published 2025).
Like-named read-outs stand apart in the source and are kept apart here. Square brackets hold non-standard residues; d marks the D form. Peptide text beside a SMILES is read from it. * marks the point of attachment. Hexanoyl = CCCCCC(=O)*; Ahx = NCCCCCC(=O)O

What was measured:
BV2 microglia [1] = assay: pAKT in LPS-stimulated BV2 microglia (HTRF); assay type: cell-based; conditions: for Inflammatory Readout: pAKT (significance of reduction): LPS pre-treatment 45 minutes, compound 1 hour
From the text: (§1) Microglia are the resident immune cells of the brain and, when activated by pathological conditions, promote broad-spectrum neuroinflammation. When activated by toxic exogenous substances, microglia produce excessive reactive oxygen species (ROS), nitric oxide (NO), and proinflammatory cytokines, which further propagates disease pathogenesis. BV2 microglia were used as an in-vitro cell model to evaluate mechanisms relevant to inflammation in the CNS. Upon activation of TLR4 with LPS, microglia are activated and trigger excessive oxidative stress, a process that is partially mediated by AKT phosphorylation (pAKT) and activation. Microglia activation also leads to a range of changes in gene expression.
(§2) Compound A19 active metabolite (Compound A19-AM) was investigated for whether it could reduce the inflammatory effect of LPS in microglia. Inflammatory activation of BV2 microglia cells was stimulated by pre-treatment with LPS for 45 minutes, followed by the addition of test compound for 1 hour (pAKT) or 23.5 hours (NO and gene expression panel). For pAKT measurement, cells were lysed and the pAKT measurement was conducted using the HTRF system. For NO production, culture supernatants were collected and assessed for the presence of nitrite, a primary metabolic product of nitric oxide.
(§3) Quantification of nitrite production in cell culture supernatants was accomplished using the Griess Reagent System (Promega, G2930). Measurement of pAKT was assessed utilizing Phospho-AKT 1/2/3 (Ser473) […] Cellular Detection Kit (CisBio, 64AKSPEH).
(§4) Data analysis was performed via One-way ANOVA with Dunnett's multiple comparisons test compared to LPS-stimulated, vehicle treated cultures using Prism statistical software (GraphPad). Tabular data indicates significance of reduction in the indicated analyte at the indicated dose.

BV2 microglia [2] = assay: Nitrite production in LPS-stimulated BV2 microglia (Griess Reagent System); assay type: cell-based; set-up: key to Inflammatory Readout: Nitrite (significance of reduction): “NS” indicates a non-significant reduction NO production; “++” indicates a p value < 0.005 in Dunnett's multiple comparison; “+++” indicates a p value < 0.0005 in Dunnett's multiple comparison; conditions: for Inflammatory Readout: Nitrite (significance of reduction): LPS pre-treatment 45 minutes, compound 23.5 hours
From the text: as §1, §2, §3, §4

BV2 microglia [3] = assay: Quantigene gene expression panel in LPS-stimulated BV2 microglia; assay type: cell-based; set-up: key to Significant reduction in target transcript abundance compared to LPS-stimulated BV2 lysates: NLRP3 / Significant reduction in target transcript abundance compared to LPS-stimulated BV2 lysates: IL-1β / Significant reduction in target transcript abundance compared to LPS-stimulated BV2 lysates: IL-6 / Significant reduction in target transcript abundance compared to LPS-stimulated BV2 lysates: iNOS: “NS” indicates a non-significant reduction indicated gene expression compared to LPS-treated cultures; “+” indicates a p value < 0.05; “++” indicates a p value < 0.01; “+++” indicates a p value < 0.001; “+++” indicates a p value < 0.0005 in Dunnett's multiple comparison
Description: Changes in gene expression in BV2 cells in response to stimulation with LPS and whether or not these gene expression changes are influenced by treatment with Compound A19-AM was also examined. Inflammatory activation of BV2 microglia was stimulated by pre-treatment with LPS for 45 minutes followed by the addition of test compound for 23.5 hours. Cell cultures were then lysed and processed for expression profiling via bead-based transcript quantification using the Quantigene multiplex gene expression assay (ThermoFisher) and a custom array of target transcripts relevant to inflammatory activation. Expression of a major component of the inflammasome (NLRP3), cytokines (TNF-α, IL-1β, and IL-6), and inducible nitric oxide synthase (iNOS) were assessed. Expression data were quantified as fold change compared to unstimulated cell cultures. Statistical analysis consisted of one-way ANOVA with Dunnett's multiple comparisons post-test compared to LPS-stimulated lysates. Gene expression data is represented in Table 14. Expression of all inflammatory transcript targets were induced by treatment with LPS.

Prp-TDP43^A315T mice = assay type: in vivo
Description: Extranuclear accumulation of TDP-43 protein is a pathological hallmark of a number of neurological diseases. […] Male Prp-TDP43^A315T mice (N=10 mice per group) at 3 weeks of age were administered daily treatments of test compounds. Compound A19 was administered via subcutaneous injection, and Compound 5a and Compound 6a were administered via oral gavage. After 2 months of treatment, plasma samples were collected for cytokine quantification. […] Plasma IL-6 and TNF-α cytokine expression levels were determined using the ELISA method. The submandibular vein was punctured with a lancet and a blood drop was collected directly on a microtube containing EDTA as anticoagulant. Samples were centrifuged for 15 minutes at 1000×g at 4° C. within 20 minutes of collection. 20 μl of plasma supernatant was stored at −20° C. before ELISA analysis.
Plasma was diluted at 1:10 in sterile PBS, and IL-6 and TNF-α quantification was performed in duplicate for each animal using 10 μl of sample per well in 96-well plates using the ELISA method (IL-6: Signa-Aldrich Cat #RAB0308, TNF-α: Sigma-Aldrich Cat #RAB0477). Statistical analysis was carried out by 2-way ANOVA with Dunnett's multiple comparisons post-test with compound-treated samples compared to vehicle-treated samples.

[4] = 2 months of treatment, doses as in the value

CCCCCC(=O)N[C@@H](Cc1ccc(O)cc1)C(=O)N[C@H](C(=O)NCCCCCC(N)=O)[C@@H](C)CC [Compound A19 active metabolite, dihexa] (Hexanoyl-Tyr-Ile-[Ahx]-NH2)
AKT phosphorylation (result in words) (BV2 microglia [1]; LPS-stimulated BV2): significantly reduced | Inflammatory Readout: pAKT (significance of reduction) (BV2 microglia [1]; dose 0.001 nM): ++ (“++” indicates a p value < 0.005 in Dunnett's multiple comparison) | Inflammatory Readout: pAKT (significance of reduction) (BV2 microglia [1]; dose 1 nM): ++ (“++” indicates a p value < 0.005 in Dunnett's multiple comparison) | Production of nitrite (result in words) (BV2 microglia [2]; LPS-stimulated BV2): significantly reduced | Inflammatory Readout: Nitrite (significance of reduction) (BV2 microglia [2]; dose 0.01 nM): ++ (“++” indicates a p value < 0.005 in Dunnett's multiple comparison) | Inflammatory Readout: Nitrite (significance of reduction) (BV2 microglia [2]; dose 1 nM): +++ (“+++” indicates a p value < 0.0005 in Dunnett's multiple comparison) | Inflammatory Readout: Nitrite (significance of reduction) (BV2 microglia [2]; dose 10 nM): NS | Expression of IL-1β (result in words) (BV2 microglia [3]; concentrations as in the value): reduced at treatment concentrations of 100 nM and 1 μM | Expression of IL-6 (result in words) (BV2 microglia [3]; concentrations as in the value): reduced at by treatment with 1 μM | Expression of NLRP3 (result in words) (BV2 microglia [3]; concentrations as in the value): significantly reduced by treatment with 100 nM and 1 μM | Expression of TNF-α (result in words) (BV2 microglia [3]; concentrations as in the value): reduced by treatment with A19-AM at all tested concentrations | Expression of iNOS (result in words) (BV2 microglia [3]; concentrations as in the value): significantly reduced by treatment with A19-AM at concentrations of 100 nM and 1 μM | Significant reduction in target transcript abundance compared to LPS-stimulated BV2 lysates: IL-1β (BV2 microglia [3]; dose 1 pM): NS | Significant reduction in target transcript abundance compared to LPS-stimulated BV2 lysates: IL-6 (BV2 microglia [3]; dose 1 pM): NS | Significant reduction in target transcript abundance compared to LPS-stimulated BV2 lysates: NLRP3 (BV2 microglia [3]; dose 1 pM): NS | Significant reduction in target transcript abundance compared to LPS-stimulated BV2 lysates: iNOS (BV2 microglia [3]; dose 1 pM): NS | Significant reduction in target transcript abundance compared to LPS-stimulated BV2 lysates: IL-1β (BV2 microglia [3]; dose 10 pM): NS | Significant reduction in target transcript abundance compared to LPS-stimulated BV2 lysates: IL-6 (BV2 microglia [3]; dose 10 pM): NS | Significant reduction in target transcript abundance compared to LPS-stimulated BV2 lysates: NLRP3 (BV2 microglia [3]; dose 10 pM): NS | Significant reduction in target transcript abundance compared to LPS-stimulated BV2 lysates: iNOS (BV2 microglia [3]; dose 10 pM): NS | Significant reduction in target transcript abundance compared to LPS-stimulated BV2 lysates: IL-1β (BV2 microglia [3]; dose 100 pM): NS | Significant reduction in target transcript abundance compared to LPS-stimulated BV2 lysates: IL-6 (BV2 microglia [3]; dose 100 pM): NS | Significant reduction in target transcript abundance compared to LPS-stimulated BV2 lysates: NLRP3 (BV2 microglia [3]; dose 100 pM): NS | Significant reduction in target transcript abundance compared to LPS-stimulated BV2 lysates: iNOS (BV2 microglia [3]; dose 100 pM): NS | Significant reduction in target transcript abundance compared to LPS-stimulated BV2 lysates: IL-1β (BV2 microglia [3]; dose 100 nM): + (“+” indicates a p value < 0.05) | Significant reduction in target transcript abundance compared to LPS-stimulated BV2 lysates: IL-6 (BV2 microglia [3]; dose 100 nM): NS | Significant reduction in target transcript abundance compared to LPS-stimulated BV2 lysates: NLRP3 (BV2 microglia [3]; dose 100 nM): ++ (“++” indicates a p value < 0.01) | Significant reduction in target transcript abundance compared to LPS-stimulated BV2 lysates: iNOS (BV2 microglia [3]; dose 100 nM): ++ (“++” indicates a p value < 0.01) | Significant reduction in target transcript abundance compared to LPS-stimulated BV2 lysates: IL-1β (BV2 microglia [3]; dose 1 μM): ++ (“++” indicates a p value < 0.01) | Significant reduction in target transcript abundance compared to LPS-stimulated BV2 lysates: IL-6 (BV2 microglia [3]; dose 1 μM): + (“+” indicates a p value < 0.05) | Significant reduction in target transcript abundance compared to LPS-stimulated BV2 lysates: NLRP3 (BV2 microglia [3]; dose 1 μM): + (“+” indicates a p value < 0.05) | Significant reduction in target transcript abundance compared to LPS-stimulated BV2 lysates: iNOS (BV2 microglia [3]; dose 1 μM): ++ (“++” indicates a p value < 0.01)

CCC(C)CN1CC2N(Cc3ccc(C(F)(F)F)cc3)CCC(=O)N2[C@@H](C)C1=O (stereo partly shown) [Compound 5a]
Significant decrease in plasma cytokine expression after 2 months of treatment: IL-6 (Prp-TDP43^A315T mice; 2 mg/kg PO daily): ++++ (++++ = p < 0.0001) | Significant decrease in plasma cytokine expression after 2 months of treatment: TNF-α (Prp-TDP43^A315T mice; 2 mg/kg PO daily): ++++ (++++ = p < 0.0001) | Significant decrease in plasma cytokine expression after 2 months of treatment: IL-6 (Prp-TDP43^A315T mice; 10 mg/kg PO daily): ++++ (++++ = p < 0.0001) | Significant decrease in plasma cytokine expression after 2 months of treatment: TNF-α (Prp-TDP43^A315T mice; 10 mg/kg PO daily): ++++ (++++ = p < 0.0001) | Significant decrease in plasma cytokine expression after 2 months of treatment: IL-6 (Prp-TDP43^A315T mice; 20 mg/kg PO daily): ++++ (++++ = p < 0.0001) | Significant decrease in plasma cytokine expression after 2 months of treatment: TNF-α (Prp-TDP43^A315T mice; 20 mg/kg PO daily): ++++ (++++ = p < 0.0001) | Plasma IL-6 expression (result in words) (Prp-TDP43^A315T mice; [4]): significantly reduced both cytokine levels at doses of 2, 10, and 20 mg/kg | Plasma TNF-α expression (result in words) (Prp-TDP43^A315T mice; [4]): significantly reduced both cytokine levels at doses of 2, 10, and 20 mg/kg
